19 compounds from patent US4192871A, “Chemical compounds” (Glaxo Laboratories Limited, priority 1976, dated 1980) can be followed below.

The structures appear in SMILES notation. Counter-ions that a name gives are not always drawn.

Data set [1] can be described thus: dissolution of the 11β-aminoester salts in aqueous acid (Table 5 and Examples 101, 225-229). The format is physicochemical. The method, then: (§1) A solution of the above free base (492 mg; 1 mmole) in ethanol (10 ml) was treated with a solution (10 ml) of M/10 citric acid in ethanol water (9:1) and the mixture evaporated in vacuo at low temperature to afford a froth.
(§2) Table 5 summarises the properties and preparation of salts of the invention by one of the following methods:
(§3) A. The 11β-aminoester (1 part) was added to a solution of the acid (1 molar part) in water and the mixture stirred or shaken until a clear solution was obtained. The solution was made up with water to the weight indicated, filtered through a membrane and the pH determined.
(§4) B. The 11β-aminoester (1 part) was added to a solution of the acid (1 molar part) in water and the mixture stirred or shaken. As free base remained undissolved, further acid was added and the mixture agitated again. The solution was made up with water to the weight indicated and any material which then remained undissolved was collected in a weighed funnel and the weight of free base dissolved calculated and the pH of the solution measured.
(§5) C. A mixture of the 11β-aminoester (1 part), a 0.1 M solution of the acid (1 molar part) and ethanol was evaporated in vacuo and dried to constant weight. The residue was dissolved in a little water and any material which then remained undissolved collected in a weighed funnel and the weight of free base dissolved calculated. The solution was made up with water to the weight indicated and its pH measured.
(§6) D. The 11β-aminoester (1 part) was added to a solution of the acid (1 molar part) in water and the mixture stirred or shaken. The solution was made up with water to the weight indicated. The material remaining undissolved was collected in a weighed funnel and the weight of free base dissolved calculated and the pH of the solution measured.
(§7) E. As in method C except that further acid was added to the residue after addition of the small amount of water.
The solid citric acid used was as its monohydrate.
(§8) Sodium iodide (0.250 g) and diethylamine (0.5 ml) were added to a solution of 11β-chloroacetoxy-2β-ethoxy-3α-hydroxy-D-homo-5α-pregnan-20-one (0.250 g) in acetone (10 ml) and the mixture was left at room temperature for 3 days during which time a white solid precipated. Water was added and the yellow solution was concentrated in vacuo whereupon crystallisation occurred. The needles were filtered off and washed well with acetone/water yielding the title compound (0.201 g), m.p. 160°-73°, [α]D +60.8°. The above base (0.101 g) was stirred with citric acid monohydrate (0.042 g) in water (9.5 ml) for 21 hours. The solution was made up to 10.1 g by weight. The solid remaining out of solution was filtered off, dried and weighed. The solution was passed through a millipore filter giving an aqueous solution of the title compound, concentration 9.75 mg/ml, pH 3.66.
The above base (0.096 g) was stirred in a solution of citric acid monohydrate (0.038 g) in water (8.5 ml) for 20 hours. A large proportion of the steroid remained out of solution. More citric acid (0.038 g) was added and the mixture stirred for a further 6 hours. The solution was made up to 9.6 g by weight and the solid remaining out of solution was filtered off, dried and weighed. The solution was passed through a millipore filter giving an aqueous solution of the title compound, concentration 9.5 mg/ml, pH 2.85.
To a solution of citric acid monohydrate (52.5 mg) in water (2 ml) was added the above free base (115 mg). More water (8 ml) was added and the mixture was stirred for 72 hrs. A small amount of steroid remained out of solution and more citric acid (52.5 mg) was added. Within 5 mins. a clear solution was obtained which was made up to 11.5 g with water and filtered through a millipore filter yielding an aqueous solution of the title citrate, concentration 10 mg/ml, pH 3.0.
The above free base (112 mg) was added to a solution of citric acid monohydrate (52.5 mg) in water (2 ml). More water (8 ml) was added and the mixture was swirled from time to time. […]

Data set [2] in a line: pH of the salt solutions. The format is physicochemical. How it is done: as §1, §2, §3, §4, §5, §6, §7
11β-N,N-Diethylaminoacetoxy-2β-ethoxy-3α-hydroxy-5α-pregnan-20-one (1.45 g) was agitated with citric acid monohydrate (621 mg) in 0.9% w/v sodium chloride solution (steriflex^(R)) (130 ml.) at 20° for 16.5 hours. The resulting solution was stirred at 21° and N/5 sodium hydroxide solution in steriflex^(R) (10.5 ml) was added dropwise during 30 minutes, raising the pH from 3.63 to 4.52. The solution was diluted to 162.5 g so that the concentration of steroid was 9 mg/ml. The solution of the citrate was filtered through a membrane and finally filtered into 8 sterile ampoules.
11β-(N-Butyl-N-ethylaminoacetoxy)-3α-hydroxy-5α-pregnan-20-one (1.80 g) was agitated with citric acid monohydrate (793 mg) in 0.9% w/v sodium chloride solution (steriflex^(R)) (160 ml) at 20° for 19.5 hours. The resulting solution was slightly cloudy. This solution was stirred at 21° and N/5 sodium hydroxide solution in steriflex^(R) (5.8 ml) was added dropwise during 15 minutes, raising the pH from 3.62 to 4.00. The solution was diluted to 201.2 g so that the concentration of steroid was 9 mg/ml. The cloudiness was removed by filtration through a membrane and the clear solution of the citrate was filtered into 8 sterile ampoules.
as §8, with “3.66. […]” for “3.66.”

The mark [3] stands for this setting: method A: clear solution, 1 molar part acid, made up with water to WT. of solution 10 g, except Ex. 121 and 150: 12, 123: 12.3, 124: 7.5, 129: 10.3, 135 and 139: 8.95, 164: 10.35, 170: 10.4, 181: 10.04, 187: 9.5, 210: 10.2, 221: 15 g.
[4] abbreviates: aqueous solution of the salt, Table 5.
Where [5] appears, read: method B: further acid added, undissolved material weighed, WT. of solution 10 g, except Ex. 130 and 141: 9.2, 142: 9.23, 143, 144, 189 and 199: 9.8, 149: 10.6, 153: 7.9, 162 and 188: 9.5, 163: 68, 166: 10.4, 168: 10.7, 169: 10.9, 183: 8.05, 184 and 201: 9.83, 185: 7.1, 186: 9.3, 192: 10.07, 193: 6.4, 195: 6.8, 196: 7, 197: 7.2, 200: 10.1, 206: 15 g.
Setting [6] is: method C: ethanol evaporated, residue in water, undissolved material weighed, WT. of solution Ex. 118: 10, 120: 10.4, 148: 9.54, 152: 5.6, 154: 9.1, 155: 8.77, 156: 9.06, 157: 9.5, 158: 9.38, 159: 9.17, 179: 9.65, 180: 11.7, 182: 4.9, 202: 12.05, 213: 12, 214: 11.5, 215: 11.1, 216: 11.6, 217: 12.1 g.

For `CC(=O)[C@H]1CC[C@H]2[C@@H]3CC[C@H]4C[C@H](O)CC[C@]4(C)[C@H]3[C@@H](OC(=O)CNCC(C)C)C[C@]12C` [Example 135], in data set [1] (setting [3]), the Dissolved aminoester came out at 80.5 mg. In addition, the pH in data set [2] (setting [4]) is on record as 3.27.
Consider `CCC(C)N(C)CC(=O)O[C@H]1C[C@]2(C)[C@@H](C(C)=O)CC[C@H]2[C@@H]2CC[C@H]3C[C@H](O)CC[C@]3(C)[C@H]21` (some centres unmarked) [Example 184], for which the Dissolved aminoester in data set [1] (setting [5]) was determined as 94.5 mg. In addition, the pH in data set [2] (setting [4]) was found to be 3.0.
As for `CC(=O)[C@H]1CC[C@H]2[C@@H]3CC[C@H]4C[C@H](O)CC[C@]4(C)[C@H]3[C@@H](OC(=O)CN(C)C)C[C@]12C` [Example 151], the Dissolved aminoester in data set [1] (setting [3]) stood at 100 mg. Moreover, the pH in data set [2] (setting [4]) is on record as 3.6.
For the compound `CCCCOC1CC2(C)C(CCC3C4CCC(C(C)=O)C4(C)CC(OC(=O)CN(C)CCCC)C32)CC1O` (centres unmarked) [Example 168], the Dissolved aminoester in data set [1] (setting [5]) is given as 70.5 mg. Further, the pH in data set [2] (setting [4]) was found to be 2.4.
Consider `CC(=O)[C@H]1CC[C@H]2[C@@H]3CC[C@H]4C[C@H](O)CC[C@]4(C)[C@H]3[C@@H](OC(=O)CNC34CC5CC(CC(C5)C3)C4)C[C@]12C` [Example 146], for which, in data set [1] (setting [5]), the Dissolved aminoester was 86 mg. The pH in data set [2] (setting [4]) is 2.92.
Taken in the same sequence, the figures for `CCC(C)CN(CC)CC(=O)O[C@H]1C[C@]2(C)[C@@H](C(C)=O)CC[C@H]2[C@@H]2CC[C@H]3C[C@H](O)CC[C@]3(C)[C@H]21` (some centres unmarked) [Example 196] were 39 mg and 2.53.
Regarding `CO[C@H]1C[C@@]2(C)[C@@H](CC[C@@H]3[C@@H]2[C@@H](OC(=O)CN2CCCCC2)C[C@]2(C)[C@@H](C(C)=O)CC[C@@H]32)C[C@@H]1O` [Example 123], in data set [1] (setting [3]), the Dissolved aminoester worked out at 122 mg. Also, in data set [2] (setting [4]), the pH turned out to be 3.6.
With `CC(=O)[C@H]1CC[C@H]2[C@@H]3CC[C@H]4C[C@H](O)CC[C@]4(C)[C@H]3[C@@H](OC(=O)C(C)N3CCCCC3)C[C@]12C` (some centres unmarked) [Example 180], in data set [1] (setting [6]), the Dissolved aminoester amounted to 117 mg. Moreover, the pH in data set [2] (setting [4]) came to 3.60.
As for `CCCN(C)CC(=O)O[C@H]1C[C@]2(C)[C@@H](C(C)=O)CC[C@H]2[C@@H]2CC[C@H]3C[C@H](O)CC[C@]3(C)[C@H]21` [Example 117], the Dissolved aminoester in data set [1] (setting [3]) is 100 mg. Moreover, the pH in data set [2] (setting [4]) was 3.4.
With `CCN(CC)CC(=O)O[C@H]1C[C@]2(C)[C@@H](C(C)=O)CC[C@H]2[C@@H]2CC[C@H]3C[C@H](O)[C@@H](Cl)C[C@]3(C)[C@H]21` [Example 202], in data set [1] (setting [6]), the Dissolved aminoester is 120.5 mg. For the same compound, in data set [2] (setting [4]), the pH amounted to 3.65.
As for `CCCN(CCC)CC(=O)O[C@H]1C[C@]2(C)[C@@H](C(C)=O)CC[C@H]2[C@@H]2CC[C@H]3C[C@H](O)CC[C@]3(C)[C@H]21` [Example 219], in data set [1] (method D: 1 molar part acid, undissolved material weighed, WT. of solution 10 g, except Ex. 136: 8.95, 140: 9.52, 165 and 167: 10.1, 190 and 198: 9.8, 191: 8.9, 194: 6.6, 204: 10.09, 219: 10.6 g), the Dissolved aminoester is 106 mg. The pH in data set [2] (setting [4]) was found to be 3.77.
For the compound `CCCCN(C)CC(=O)OC1CC2(C)C(C(C)=O)CCC2C2CCC3CC(O)C(OC(C)=O)CC3(C)C12` (centres unmarked) [Example 170], the Dissolved aminoester in data set [1] (setting [3]) is 104 mg. Moreover, the pH in data set [2] (setting [4]) is listed as 3.7.
In the case of `CCCCN(CC)CC(=O)O[C@H]1C[C@]2(C)[C@@H](C(C)=O)CC[C@H]2[C@@H]2CC[C@H]3C[C@H](O)CC[C@]3(C)[C@H]21` [Example 221], the Dissolved aminoester in data set [1] (setting [3]) worked out at 150 mg. Further, the pH in data set [2] (setting [4]) is given as 3.52.
For `CCN(CC)CC(=O)O[C@H]1C[C@]2(C)[C@@H](C(C)=O)CC[C@H]2[C@@H]2CC[C@H]3C[C@H](O)[C@@H](OC)C[C@]3(C)[C@H]21` [Example 124], the Dissolved aminoester in data set [1] (setting [3]) turned out to be 75 mg. In data set [2] (setting [4]), the pH worked out at 3.65.
On to `CCCN(CCC)CC(=O)O[C@H]1C[C@]2(C)[C@@H](C(C)=O)CC[C@H]2[C@@H]2CC[C@H]3C[C@H](O)CC[C@]3(C)[C@H]21` [Example 218], for which the Dissolved aminoester in data set [1] (method C, 0.9% w/v saline in place of water, WT. of solution 95 g) is on record as 951 mg. In addition, the pH in data set [2] (solution of the salt in saline, before any adjustment) was 3.38.
In the case of `CCOC1CC2(C)C(CCC3C4CCC(C(C)=O)C4(C)CC(OC(=O)CN4CCC(C)CC4)C32)CC1O` (centres unmarked) [Example 164], the Dissolved aminoester in data set [1] (setting [3]) was 103.5 mg. For the same compound, the pH in data set [2] (setting [4]) is 3.72.
On to `CCCN(CCC)CC(=O)O[C@H]1C[C@]2(C)[C@@H](C(C)=O)CC[C@H]2[C@@H]2CC[C@H]3C[C@H](O)CC[C@@H]3[C@H]21` [Example 227 citrate salt], for which the “concentration of aqueous solution of the citrate” value in data set [1] (citric acid monohydrate in water, filtered solution) came to 10 mg/mL. In data set [2] (aqueous solution of the citrate, filtered, 9.5-10 mg/ml), the pH came out at 3.0.
As for `CCN(CC)CC(=O)OC1CC2(C)C(C(C)=O)CCC2C2CCC3CC(O)C(C)CC3(C)C12` (centres unmarked) [Example 173], the Dissolved aminoester in data set [1] (setting [5]) was 78 mg. Further, the pH in data set [2] (setting [4]) is on record as 2.82.
On to `CCCN(CCC)CC(=O)O[C@H]1C[C@]2(C)[C@@H](C(C)=O)CC[C@H]2[C@@H]2CC[C@H]3C[C@H](O)CC[C@]3(C)[C@H]21` [Example 214], for which, in data set [1] (setting [6]), the Dissolved aminoester was found to be 115 mg. Also, in data set [2] (setting [4]), the pH is 3.52.
